Earlier results as cited in patent US10391078B2, “Methods for the treatment of mast cell related disorders with mast cell stabilizers” (Respivant Sciences GmbH, priority 2015, dated 2019).
Where two headings read alike, the source gives them in different places.

oral bioavailability: less than 1% | oral bioavailability (listed as cromolyn): about 1%
Structure (SMILES): O=C(O)c1cc(=O)c2c(OCC(O)COc3cccc4oc(C(=O)O)cc(=O)c34)cccc2o1 [cromolyn sodium]
